Key:
[1] = test system: rats subjected to Li-pilo induced SE; test: EEG patterns during lithium-pilocarpine SE (Example 1); assay type: in vivo, rat
Procedure: Male Wistar rats weighing 225-250 g, provided by Janvier Breeding Center (Le Genest-St-lste, France) were housed under controlled standard conditions (light/dark cycle, 7.00 a.m.-7.00 p.m. lights on), with food and water available ad libitum. All animal experimentation was performed in accordance with the rules of the European Communities Council Directive of Nov. 24, 1986 (86/609/EEC), and the French Department of Agriculture (License No 67-97). For electrode implantation, rats were anesthetized by an i.p. injection of 2.5 mg/kg diazepam (DZP, Valium, Roche, France) and […] ketamine chlorhydrate (Imalgene 1000, Rhone Merrieux, France). Four single-contact recording electrodes were placed on the skull, over the parietal cortex, two on each side.
All rats received lithium chloride (3 meq/kg, i.p., Sigma, St Louis, Mo., U.S.A.); about 20 h later, animals were placed into plexiglas boxes, in order to record baseline cortical EEG. Methylscopolamine bromide (1 mg/kg, s.c., Sigma) was administered to limit the peripheral effects of the convulsant. SE was induced by injecting pilocarpine hydrochloride (25 mg/kg, s.c., Sigma) 30 min after methyl-scopolamine. The bilateral EEG cortical activity was recorded during the whole duration of SE and behavioral changes were noted.
The effects of increasing doses of the test compound were studied on 3 groups of rats. The animals of the first group received 10 mg/kg of the test compound, i.p., 1 h after the onset of SE (pilo-TC10) while the animals of groups 2 and 3 received 30 and 60 mg/kg of the test compound (pilo-TC30 and pilo-TC60), respectively.
Another group was injected with 2 mg/kg diazepam (DZP, i.m.) at 1 h after the onset of SE. This is a standard treatment to improve animals survival after SE (pilo-DZP). The control group received saline instead of pilocarpine and the test compound (saline-saline). The pilo-test compound rats surviving SE were then injected about 10 h after the first test compound injection with a second i.p. injection of the same dose of the test compound and were maintained under a twice daily treatment with the test compound for 6 additional days. Pilo-DZP received a second injection of 1 mg/kg DZP on the day of SE at about 10 h after the first one. Thereafter, Pilo-DZP and saline-saline rats received twice daily an equivalent volume of saline.
The effects of the test compound on the EEG and on the latency to occurrence of SRS were investigated by daily video recording of the animals for 10 h per day and the recording of the electrographic activity twice a week for 8 h.

[2] = test system: rats subjected to li-pilo SE; test: Quantification of cell densities 14 days after lithium-pilocarpine SE (Example 2); assay type: in vivo, rat; details: 14 days after SE
Procedure: All rats received lithium chloride (3 meq/kg, i.p., Sigma, St Louis, Mo., U.S.A.) and about 20 h later, all animals received also methylscopolamine bromide (1 mg/kg, s.c., Sigma) that was administered to limit the peripheral effects of the convulsant. SE was induced by injecting pilocarpine hydrochloride (25 mg/kg, s.c., Sigma) 30 min after methylscopolamine. The effects of increasing doses of TC (RWJ) were studied in 5 groups of rats. […] The control group received vehicle instead of pilocarpine and TC.
At the moment, neuronal counting is still in progress in the second group of animals studied for epileptogenesis and long-term counting and the data concerning that part of the study will not be included in the present report. For neuronal counting, animals were deeply anesthetized with […] pentobarbital (Dolethal®, Vetoquinol, Lure, France). Brains were then removed and frozen. Serial 20 μm slices were cut in a cryostat, air-dried during several days before thionine staining. […] The grid of counting was placed on a well defined area of the cerebral structure of interest and counting was carried out with a microscopic enlargement of 200- or 400-fold defined for each single cerebral structure. Cell counts were performed twice on each side of three adjacent sections for each region by a single observer unaware of the animal's treatment. The number of cells obtained in the 12 counted fields in each cerebral structure was averaged. This procedure was used to minimize the potential errors that could result from double counting leading to overestimation of cell numbers. […] Counts involved only neurons with cell bodies larger than 10 μm. Cells with small cell bodies were considered as glial cells and were not counted.
For neuronal damage and epileptogenesis, statistical analysis between groups was performed by means of a one-way analysis of variance followed by a post-hoc Dunnett or Fisher test using the Statistica software.

## NC(=O)OC[C@@H](O)c1ccccc1Cl [Formula 7]
[1]; TC10-treated rats (10 mg/kg i.p.)
  EEG activity in the cortex and the hippocampus by 6-7 h of SE: spiking activity was still present
[1]; TC30 rats (30 mg/kg i.p.)
  amplitude of the EEG by 6-7 h of SE, hippocampus: came back to baseline levels
[1]; TC60 treated rats (60 mg/kg i.p.)
  amplitude of the EEG by 6-7 h of SE, hippocampus and cortex (both structures): came back to baseline levels
[2]; TC 60 mg/kg, significant vs DZP
  neuronal drop out, layer II of the dorsal piriform cortex: 25%
[2]; TC 90 mg/kg
  damage remaining, ventral entorhinal cortex layer II: 4%
  damage remaining, ventral entorhinal cortex layers III/IV: 17%
[2]; TC 120 mg/kg
  neuronal density as % of control levels, piriform cortex: 78-96%
  neurons surviving, all parts of the entorhinal cortex: 85-94%
[2]; TC30, 60 or 90 rats, significant vs DZP
  cell loss, CA1 pyramidal cell layer: 36-47%
[2]; TC120 group, not significant vs DZP
  neuronal loss, hilus of the dentate gyrus: 53%
[2]; TC120 group, significant vs DZP
  cell loss, CA1 pyramidal cell layer: 12%
[2]; TC120 rats
  neuronal drop out, thalamic nuclei: 4-19%
[2]; TC highest dose (120 mg/kg)
  number of neurons as % of the control level, all amygdala nuclei: 86-99%
[2]; pilo-TC30 (30 mg/kg), n = 8
  number of neuronal cell bodies, Amygdala, Basolateral: 27.3 ± 4.9**°
  number of neuronal cell bodies, Amygdala, Medial, dorsal anterior: 46.8 ± 5.0
  number of neuronal cell bodies, Amygdala, Medial, ventral posterior: 22.3 ± 1.8
  number of neuronal cell bodies, Cerebral cortex, Entorhinal, layer II, dorsal: 23.4 ± 0.6
  number of neuronal cell bodies, Cerebral cortex, Entorhinal, layer II, ventral: 22.7 ± 0.9
  number of neuronal cell bodies, Cerebral cortex, Entorhinal, layer III/IV, dorsal: 22.3 ± 0.5
  number of neuronal cell bodies, Cerebral cortex, Entorhinal, layer III/IV, ventral: 13.2 ± 1.9
  number of neuronal cell bodies, Cerebral cortex, Piriform, layer II, dorsal: 15.7 ± 2.9
  number of neuronal cell bodies, Cerebral cortex, Piriform, layer II, ventral: 7.2 ± 3.8
  number of neuronal cell bodies, Cerebral cortex, Piriform, layer III: 1.8 ± 1.8
  number of neuronal cell bodies, Hippocampus, CA1 area: 39.3 ± 4.4**°°
  number of neuronal cell bodies, Hippocampus, CA3 area: 35.7 ± 1.8
  number of neuronal cell bodies, Hippocampus, Hilus: 33.0 ± 3.2
  number of neuronal cell bodies, Thalamus, Central medial: 75.6 ± 7.7
  number of neuronal cell bodies, Thalamus, Dorsolateral, medial, dorsal: 64.2 ± 9.3**°°
  number of neuronal cell bodies, Thalamus, Dorsolateral, ventral lateral: 8.8 ± 2.8
  number of neuronal cell bodies, Thalamus, Mediodorsal central: 26.9 ± 0.6
  number of neuronal cell bodies, Thalamus, Mediodorsal lateral: 20.5 ± 0.7
  number of neuronal cell bodies, Thalamus, Mediodorsal medial: 11.5 ± 2.5
[2]; pilo-TC60 (60 mg/kg), n = 11
  number of neuronal cell bodies, Amygdala, Basolateral: 27.8 ± 4.3**°°
  number of neuronal cell bodies, Amygdala, Medial, dorsal anterior: 58.4 ± 2.8**°
  number of neuronal cell bodies, Amygdala, Medial, ventral posterior: 26.2 ± 2.9
  number of neuronal cell bodies, Cerebral cortex, Entorhinal, layer II, dorsal: 23.9 ± 0.5
  number of neuronal cell bodies, Cerebral cortex, Entorhinal, layer II, ventral: 23.3 ± 0.8
  number of neuronal cell bodies, Cerebral cortex, Entorhinal, layer III/IV, dorsal: 23.2 ± 0.8
  number of neuronal cell bodies, Cerebral cortex, Entorhinal, layer III/IV, ventral: 16.5 ± 2.2
  number of neuronal cell bodies, Cerebral cortex, Piriform, layer II, dorsal: 27.5 ± 2.8**°°
  number of neuronal cell bodies, Cerebral cortex, Piriform, layer II, ventral: 13.7 ± 4.2
  number of neuronal cell bodies, Cerebral cortex, Piriform, layer III: 6.4 ± 2.3
  number of neuronal cell bodies, Hippocampus, CA1 area: 31.9 ± 4.4**°°
  number of neuronal cell bodies, Hippocampus, CA3 area: 31.6 ± 1.4
  number of neuronal cell bodies, Hippocampus, Hilus: 32.8 ± 3.3
  number of neuronal cell bodies, Thalamus, Central medial: 83.7 ± 9.6
  number of neuronal cell bodies, Thalamus, Dorsolateral, medial, dorsal: 77.5 ± 3.9**°°
  number of neuronal cell bodies, Thalamus, Dorsolateral, ventral lateral: 56.7 ± 8.7
  number of neuronal cell bodies, Thalamus, Mediodorsal central: 24.1 ± 1
  number of neuronal cell bodies, Thalamus, Mediodorsal lateral: 18.9 ± 0.6
  number of neuronal cell bodies, Thalamus, Mediodorsal medial: 19.1 ± 2.6
[2]; pilo-TC90 (90 mg/kg), n = 10
  number of neuronal cell bodies, Amygdala, Basolateral: 40.7 ± 1.6°°
  number of neuronal cell bodies, Amygdala, Medial, dorsal anterior: 72.2 ± 5.7°°
  number of neuronal cell bodies, Amygdala, Medial, ventral posterior: 30.7 ± 3.7°°
  number of neuronal cell bodies, Cerebral cortex, Entorhinal, layer II, dorsal: 26.3 ± 0.9
  number of neuronal cell bodies, Cerebral cortex, Entorhinal, layer II, ventral: 25.4 ± 1.1°
  number of neuronal cell bodies, Cerebral cortex, Entorhinal, layer III/IV, dorsal: 26.7 ± 0.8
  number of neuronal cell bodies, Cerebral cortex, Entorhinal, layer III/IV, ventral: 23.7 ± 1.5°°
  number of neuronal cell bodies, Cerebral cortex, Piriform, layer II, dorsal: 32.4 ± 1.1°°
  number of neuronal cell bodies, Cerebral cortex, Piriform, layer II, ventral: 18.4 ± 4.0°°
  number of neuronal cell bodies, Cerebral cortex, Piriform, layer III: 9 ± 3.0°°
  number of neuronal cell bodies, Hippocampus, CA1 area: 47.7 ± 6.6*°
  number of neuronal cell bodies, Hippocampus, CA3 area: 35.1 ± 2.9
  number of neuronal cell bodies, Hippocampus, Hilus: 37.5 ± 3.1
  number of neuronal cell bodies, Thalamus, Central medial: 88.2 ± 8.5
  number of neuronal cell bodies, Thalamus, Dorsolateral, medial, dorsal: 79.4 ± 3.1**°°
  number of neuronal cell bodies, Thalamus, Dorsolateral, ventral lateral: 71.8 ± 5.3°°*
  number of neuronal cell bodies, Thalamus, Mediodorsal central: 27.4 ± 1.5
  number of neuronal cell bodies, Thalamus, Mediodorsal lateral: 22 ± 1.2*°
  number of neuronal cell bodies, Thalamus, Mediodorsal medial: 23.1 ± 2.8°°
[2]; pilo-TC120 (120 mg/kg), n = 8
  number of neuronal cell bodies, Amygdala, Basolateral: 42.7 ± 1.3°°
  number of neuronal cell bodies, Amygdala, Medial, dorsal anterior: 80.2 ± 2.6°°
  number of neuronal cell bodies, Amygdala, Medial, ventral posterior: 34.7 ± 1.7°°
  number of neuronal cell bodies, Cerebral cortex, Entorhinal, layer II, dorsal: 27.3 ± 0.5°°
  number of neuronal cell bodies, Cerebral cortex, Entorhinal, layer II, ventral: 25.1 ± 0.6
  number of neuronal cell bodies, Cerebral cortex, Entorhinal, layer III/IV, dorsal: 26.4 ± 0.7°°
  number of neuronal cell bodies, Cerebral cortex, Entorhinal, layer III/IV, ventral: 24.5 ± 1.4°°
  number of neuronal cell bodies, Cerebral cortex, Piriform, layer II, dorsal: 35.2 ± 1.1°°
  number of neuronal cell bodies, Cerebral cortex, Piriform, layer II, ventral: 30.5 ± 1.3°°
  number of neuronal cell bodies, Cerebral cortex, Piriform, layer III: 15 ± 2.2°°
  number of neuronal cell bodies, Hippocampus, CA1 area: 65.5 ± 2.9°°
  number of neuronal cell bodies, Hippocampus, CA3 area: 39.8 ± 1.5
  number of neuronal cell bodies, Hippocampus, Hilus: 44.8 ± 2.9
  number of neuronal cell bodies, Thalamus, Central medial: 108.2 ± 6.6°
  number of neuronal cell bodies, Thalamus, Dorsolateral, medial, dorsal: 89.8 ± 3.7*°
  number of neuronal cell bodies, Thalamus, Dorsolateral, ventral lateral: 79.0 ± 4.7°°
  number of neuronal cell bodies, Thalamus, Mediodorsal central: 29.9 ± 1.7°
  number of neuronal cell bodies, Thalamus, Mediodorsal lateral: 24.4 ± 1.1°°
  number of neuronal cell bodies, Thalamus, Mediodorsal medial: 28.6 ± 0.8°°

From US20090137652A1, “METHODS FOR NEUROPROTECTION” (priority 2005, published 2009)
